The source made the active and inactive calls. The calls are words filed in the database; no cut-off is given here.
Columns and labels:
[1] = biological target: T1, UDP-N-acetylglucosamine--peptide N-acetylglucosaminyltransferase 110 kDa subunit (Homo sapiens) (UniProt O15294); assay: Inhibition of human OGT using [3H]-UDP-GlcNAc as donor and recombinant nup2 as acceptor at 50 uM by liquid scintillation counting analysis
T1 sequence (whole entry): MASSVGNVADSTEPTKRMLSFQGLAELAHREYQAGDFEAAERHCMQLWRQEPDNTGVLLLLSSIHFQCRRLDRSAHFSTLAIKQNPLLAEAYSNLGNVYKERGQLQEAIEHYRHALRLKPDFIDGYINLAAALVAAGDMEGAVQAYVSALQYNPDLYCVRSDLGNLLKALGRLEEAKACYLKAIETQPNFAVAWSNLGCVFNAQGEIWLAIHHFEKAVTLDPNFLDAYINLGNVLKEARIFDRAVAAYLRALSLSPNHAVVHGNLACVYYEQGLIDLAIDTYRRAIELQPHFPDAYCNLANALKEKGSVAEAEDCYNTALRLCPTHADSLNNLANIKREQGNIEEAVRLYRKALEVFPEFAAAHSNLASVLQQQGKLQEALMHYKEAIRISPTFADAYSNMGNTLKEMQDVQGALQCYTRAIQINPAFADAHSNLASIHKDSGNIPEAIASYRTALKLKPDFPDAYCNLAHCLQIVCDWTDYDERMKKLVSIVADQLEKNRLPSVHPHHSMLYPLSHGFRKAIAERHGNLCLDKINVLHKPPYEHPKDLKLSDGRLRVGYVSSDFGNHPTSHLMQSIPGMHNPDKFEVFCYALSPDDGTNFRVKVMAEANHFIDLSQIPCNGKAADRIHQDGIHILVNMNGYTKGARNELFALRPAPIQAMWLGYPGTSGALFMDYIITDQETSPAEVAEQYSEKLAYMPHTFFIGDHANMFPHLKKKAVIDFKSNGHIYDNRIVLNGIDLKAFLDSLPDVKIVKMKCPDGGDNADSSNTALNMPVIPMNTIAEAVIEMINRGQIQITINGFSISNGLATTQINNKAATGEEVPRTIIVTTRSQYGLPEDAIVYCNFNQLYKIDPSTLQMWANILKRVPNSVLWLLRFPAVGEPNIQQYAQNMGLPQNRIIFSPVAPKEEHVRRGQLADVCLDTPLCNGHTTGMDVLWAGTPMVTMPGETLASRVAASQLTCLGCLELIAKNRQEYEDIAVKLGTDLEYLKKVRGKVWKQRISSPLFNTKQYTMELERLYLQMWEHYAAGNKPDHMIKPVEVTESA

[2] = biological target: T2, UDP-N-acetylglucosamine--peptide N-acetylglucosaminyltransferase 110 kDa subunit (Homo sapiens, UniProt O15294); assay: Inhibition of human OGT using [3H]-UDP-GlcNAc as donor and recombinant nup2 as acceptor by liquid scintillation counting analysis
T2 sequence (O15294 whole entry): T1 sequence (whole entry)

[3] = biological target: T1, UDP-N-acetylglucosamine--peptide N-acetylglucosaminyltransferase 110 kDa subunit (Homo sapiens); assay: Inhibition of OGT in human MCF7 cells assessed as decrease in intracellular O-GlcNAcylated protein level up to 500 uM after 24 to 48 hrs by immunoblot analysis; format: cell-based
[4] = Permeability across POPC liposomes by out-in method; format: ADME
[5] = Permeability across POPC liposomes by in-out method; format: ADME
[6] = biological target: T2, UDP-N-acetylglucosamine--peptide N-acetylglucosaminyltransferase 110 kDa subunit; assay: Inhibition of human OGT using [3H]-UDP-GlcNAc as donor and recombinant nup2 as acceptor by Dixon plot analysis
[7] = biological target: T1, UDP-N-acetylglucosamine--peptide N-acetylglucosaminyltransferase 110 kDa subunit (Homo sapiens); assay: Inhibition of OGT in human MCF10A cells assessed as decrease in intracellular O-GlcNAcylated protein level up to 500 uM after 24 to 48 hrs by immunoblot analysis; format: cell-based; conditions: MCF-10A
[8] = biological target: T1, UDP-N-acetylglucosamine--peptide N-acetylglucosaminyltransferase 110 kDa subunit (Homo sapiens); assay: Inhibition of OGT in human HeLa cells assessed as decrease in intracellular O-GlcNAcylated protein level up to 500 uM after 24 to 48 hrs by immunoblot analysis; format: cell-based

Structure (SMILES)	inhibition [1]	IC50 [2]	inhibition [3]	further results
O=c1ccn([C@@H]2O[C@H](Cn3cc(-c4cccc(-c5cn([C@@H]6O[C@H](CO)[C@@H](O)[C@H](O)[C@H]6O)nn5)n4)nn3)[C@@H](O)[C@H]2O)c(=O)[nH]1	13.3%	1600 µM	inactive	–
CC(=O)N[C@@H]1[C@@H](O)[C@H](O)[C@@H](CO)O[C@H]1n1cc(-c2cccc(C(=O)NC[C@H]3O[C@@H](n4ccc(=O)[nH]c4=O)[C@H](O)[C@@H]3O)n2)nn1	9.7%	–	inactive	–
CC(=O)N[C@@H]1[C@@H](O)[C@H](O)[C@@H](CO)O[C@H]1NC(=O)c1cccc(Cc2cn(C[C@H]3O[C@@H](n4ccc(=O)[nH]c4=O)[C@H](O)[C@@H]3O)nn2)n1	3%	–	inactive	–
O=C(NC[C@H]1O[C@@H](n2ccc(=O)[nH]c2=O)[C@H](O)[C@@H]1O)c1cccc(CO[C@@H]2O[C@H](CO)[C@@H](O)[C@H](O)[C@H]2O)n1	–	–	–	permeability [4]: impermeable; permeability [5]: impermeable
CC(=O)N[C@@H]1[C@@H](O)[C@H](O)[C@@H](CO)O[C@H]1n1cc(-c2cccc(-c3cn(C[C@H]4O[C@@H](n5ccc(=O)[nH]c5=O)[C@H](O)[C@@H]4O)nn3)n2)nn1	6.7%	–	inactive	–
O=c1ccn([C@@H]2O[C@H](Cn3cc(-c4cccc(Br)n4)nn3)[C@@H](O)[C@H]2O)c(=O)[nH]1	15.5%	710 µM	–	–
O=C(NC[C@H]1O[C@@H](n2ccc(=O)[nH]c2=O)[C@H](O)[C@@H]1O)c1cccc(-c2cn([C@@H]3O[C@H](CO)[C@@H](O)[C@H](O)[C@H]3O)nn2)n1	4.2%	–	inactive	–
O=C(NC[C@H]1O[C@@H](n2ccc(=O)[nH]c2=O)[C@H](O)[C@@H]1O)c1cccc(Br)n1	7.6%	–	inactive	–
O=C(Oc1ccccc1)n1c(=O)oc2ccc(Cl)cc21	–	10 µM	–	–
O=C(N[C@@H]1O[C@H](CO)[C@@H](O)[C@H](O)[C@H]1O)c1cccc(Cc2cn(C[C@H]3O[C@@H](n4ccc(=O)[nH]c4=O)[C@H](O)[C@@H]3O)nn2)n1	18%	340 µM	inactive	Ki [6]: 420 µM; inhibition [7]: inactive; inhibition [8]: inactive; permeability [4]: impermeable; permeability [5]: impermeable
CC(=O)N[C@@H]1[C@@H](O)[C@H](O)[C@@H](CO)O[C@@H]1SP(=O)(O)OP(=O)(O)OC[C@H]1O[C@@H](n2ccc(=O)[nH]c2=O)[C@H](O)[C@@H]1O	–	–	–	Ki [6]: 93 µM
CC(=O)N[C@@H]1[C@@H](O)[C@H](O)[C@@H](CO)S[C@@H]1OP(=O)(O)OP(=O)(O)OC[C@H]1O[C@@H](n2ccc(=O)[nH]c2=O)[C@H](O)[C@@H]1O	–	–	–	Ki [6]: 8 µM

Source: ChEMBL document CHEMBL3596110, “Design of glycosyltransferase inhibitors targeting human O-GlcNAc transferase (OGT)” (Medchemcomm, 2014)
